# Patent publication US10844002B2, “Lipids and lipid compositions for the delivery of active agents” (priority 2014, dated 2020)
# Values joined by “and” are separate entries in the source; they are usually repeats but may differ in a detail not shown here. Identical values can stand only once.
# Key:
# [1] = Encapsulation efficiency of RNA replicons (Quant-iT RiboGreen); format: physicochemical; conditions: LNP 40% cationic lipid, 10% DSPC, 48% cholesterol, 2% PEG-DMG; RNA replicon
# Experimental: Briefly, lipids were dissolved in ethanol (2m1), a RNA replicon was dissolved in buffer (2 ml, 100 mM sodium citrate, pH 6) and these were mixed with 2 ml of buffer followed by 1 hour of equilibration. The mixture was then dialized overnight against 1×PBS. The resulting product contained liposomes, with ˜70-95% encapsulation efficiency.
# The percentage of encapsulated RNA and RNA concentration were determined by Quant-iT RiboGreen RNA reagent kit (Invitrogen), following manufacturer's instructions. The ribosomal RNA standard provided in the kit was used to generate a standard curve. LNPs were diluted 10× or 100× in 1× TE buffer (from kit) before addition of the dye. Separately, LNPs were diluted 10× or 100× in 1× TE buffer containing 0.5% Triton X before addition of the dye (to disrupt the LNPs and thus to assay total RNA). Thereafter an equal amount of dye was added to each solution and then ˜180 μL of each solution after dye addition was loaded in duplicate into a 96 well tissue culture plate. The fluorescence (Ex 485 nm, Em 528 nm) was read on a microplate reader. All LNP formulations were dosed in vivo based on the encapsulated amount of RNA.
# [2] = test system: H1N1 influenza A strain, Ca107; assay: Immunogenicity in ferret models (Influenza): microneutralization; format: in vivo, ferrets; conditions: IM
# Experimental: For immunization in ferrets, a lipid working solution was freshly prepared by dissolving 22.5 mg of Example 1, 5.9 mg of DSPC, 13.9 mg of Cholesterol and 4.0 mg of PEG2000-conjugated DMPE (cat #880150P, Avanti Polar Lipids, Inc.) in 10 ml ethanol. A 10 mL working solution of RNA was also prepared at a concentration of 0.125 mg/ml in 100 mM citrate buffer (pH 6). The working lipid and RNA solutions were heated at 37° C. for 5 min before being loaded into two 10 cc luer-lok syringes. […] The outlet from the T mixer was also FEP tubing separately, 10 mL of citrate buffer (pH 6) was loaded in a third 10 cc syringe which was connected to a separate piece of tubing. All three syringes were loaded on a syringe pump and driven at 1.0 ml/min. The tubing outlets were positioned to collect the mixtures in a 20 mL glass vial which was gently stirred using a stirring bar. All glass vials were baked at 250° C. for 12 hours prior to experiment to completely inactivate any RNase contaminant. At the end of mixing, the stir bar was taken out and the ethanol/aqueous solution was allowed to equilibrate to room temperature for 1 hour. After incubation, the ethanol/aqueous solution was loaded into a syringe, and mixed with equal volume of 100 mM citrate buffer (pH 6) using the aforementioned Tee-junction process. Next, LNPs were concentrated to 20 mL and dialyzed against 10-15 volumes of 1× PBS using by tangential flow filtration before recovering the final product. The TFF system and hollow fiber filtration membranes were purchased from Spectrum Labs (Rancho Dominguez) and were used according to the manufacturer's guidelines. Polysulfone hollow fiber filtration membranes with a 100 kD pore size cutoff and 8 cm^2 surface area were used. For in vitro and in vivo experiments formulations were diluted to the required RNA concentration with 1×. PBS.
# A total of seven experimental groups with six animals per group (42 animals) were used in this study; two vaccine doses of each RNA formulation (Groups 2-5), two groups vaccinated with a non-adjuvated (H1N1 subunit) or an adjuvated (MF59/H1N1 subunit) commercially available H1N1 influenza subunit vaccine (Groups 6 and 7) and a mock vaccinated group (Group 1). The RNA test vaccines were derived from a recombinant DNA plasmid (pDNA) carrying an alphavirus genome in which the structural genes were replaced with the HA gene from the H1N1 influenza A strain, Ca107. The RNA was then formulated in either cationic oil-in-water emulsion (CNE) or LNP for delivery to host cells via intramuscular (IM) injection. RNA concentrations for each formulation study group were 15 and 45 mcg for CNE and 5 and 15 mcg for LNP. The H1N1 subunit vaccines were used at a HA subunit protein concentration of 15 mcg. Non-vaccinated animals were mock vaccinated with a vehicle control for the RNA test vaccines. All test vaccines were administered by IM injection on Study Days (SD) 0 followed with a booster vaccination on Study Day 56 (8 weeks post 1st immunization).
# Table 5 summarizes Influenza microneutralization data and table 6 the haemagultanin inhibition (HAI) titers. The LNP formulation tested generated immune responses with as little as 5 μg of self-amplifying RNA, as determined by increased HA-specific neutralization and HAI titers.
smiles,measurement,setting,value
"CCCCC/C=C\C/C=C\CCCCCCCCOc1ccc(OCCCCCCCC/C=C\C/C=C\CCCCC)c(COC(=O)CCCN(C)C)c1 [Example 1, 2,5-bis((9Z,12Z)-octadeca-9,12-dien-1-yloxy)benzyl 4-(dimethylamino)butanoate]",Encapsulation efficiency (RNA %),[1],96.6%
same,Influenza microneutralization titer,"[2]; 5 mcg RNA, 4wp1, per animal",20 (2×) and 80 and 40 (2×) and 10
same,Influenza microneutralization titer,"[2]; 5 mcg RNA, 4wp2, per animal",640 (2×) and >20480 (3×) and 320
same,Influenza microneutralization titer,"[2]; 5 mcg RNA, 8wp1, per animal",20 (2×) and 40 (2×) and 10 and <10
same,Influenza microneutralization titer,"[2]; 5 mcg RNA, Pre-bleed, per animal",<10
same,Influenza microneutralization titer,"[2]; 15 mcg RNA, 4wp1, per animal",160 (2×) and 320 and 80 (2×) and 40
same,Influenza microneutralization titer,"[2]; 15 mcg RNA, 4wp2, per animal",640 (4×) and >20480 (2×)
same,Influenza microneutralization titer,"[2]; 15 mcg RNA, 8wp1, per animal",40 (3×) and 80 (2×) and 20
same,Influenza microneutralization titer,"[2]; 15 mcg RNA, Pre-bleed, per animal",<10
